Assay results published in patent US8460635B2, “Fenretinide derivatives and uses thereof as therapeutic, diagnostic and imaging agents” (Albert Einstein College of Medicine of Yeshiva University, priority 2008, dated 2013).
Read-outs that look alike come from different tables or passages of the source. One block for each compound: values may come before it.

Experiments:
[1] = system: MON (INI1−/−) rhabdoid tumor cells; experiment: MTS survival assay of rhabdoid tumor cells; assay type: cell-based
Experimental: FIG. 1A-1D. Effect of 4HPR derivatives with phenyl group substitutions on survival of rhabdoid tumors cells. MON (INI1−/−) cells were treated with serial dilutions of the 4HPR, ATRA and 4HPR derivatives for three days. Survival assay was carried out as described using MTS assay kit. Percentage of cell survival plotted against concentration of drugs (Mean+/−SEM).
FIG. 2. Effect of fenretinide peptidomimitic derivatives on the survival of rhabdoid tumor cells in culture. % survival of MON rhabdoid tumor cells treated with fenretinide derivatives, when compared to the vehicle treated control. The data in all the panels represent the average of triplicate experiments, and the standard error is indicated.
(§1) The rhabdoid cell line (MON) (88) was cultured in RPMI 1640 supplemented with 10% fetal bovine serum, 2 mM L-glutamine, 50 U/ml penicillin, and 50 μg/ml streptomycin at 37° C. with 5% CO2 and 95% humidified air. 4-(Fenretinide) was either obtained from NCI or synthesized in house. Fenretinide or its synthetic derivatives were reconstituted in 100% ethanol as a 10 mM solution and the aliquots were stored frozen at −80° C., protected from light. Working solutions (50 μM or 200 μM) and serial dilutions were prepared by diluting the stock solution with culture medium, such that the concentration of ethanol was <2% in all dilutions.
Aliquots of 8×10^3 MON cells were plated in 96-well microdilution plates. Twenty four hours after seeding, the cells were treated with serial dilutions of each drug. Following incubation for 24 or more hours, each well was stained with 20 μl of MTS [3-(4,5-dimethylthiazol-2-yl)-5-(3-carboxymethoxyphenyl)-2-(4-sulfophenyl)-2H-tetrazolium, inner salt] that was mixed 20:1 V/V in PMS (phenazine methosulphate, CellTiter 96® AQueous Non-Radioactive Cell Proliferation Assay Kit, Promega, Madison, Wis.) added to each of the well in the microtiter plate containing 100 μl of culture medium. After 4 h incubation, the plates were analyzed by an ELISA plate reader (Wallac Victor, 1420 Multilabel Counter, Perkin Elmer) at 490 nm wave-length. Cell plating, drug treatment and survival assay were performed using the epMotion 5070 automated liquid handling robotic system (Eppendorff, Westbury, N.Y.).
Statistical analysis of the data was carried out using GraphPad Prism (San Diego, Calif.). Relative IC50 values were calculated using the nonlinear regression curve fit with sigmoidal dose response (variable slope) function. Relative IC50 is defined as the concentration giving a response exactly half way between the fitted top and bottom of the survival curve when graphed as percent inhibition versus the log of the concentration of compound. The fitting error, or standard error describes the error involved in fitting the curve.

[2] = system: MON (INI1−/−) rhabdoid tumor cells; experiment: MTS survival assay of rhabdoid tumor cells; assay type: cell-based; details: charcoal adsorbed serum
[3] = Precipitation / solubility in cell culture medium; assay type: physicochemical
Experimental: as §1

[4] = system: MON cells; experiment: FACS analysis of cell cycle and sub-G1 (apoptosis); assay type: cell-based; details: 2 days
Experimental: (§2) FIG. 3A-3B. Induction of cell cycle arrest and apoptosis by halogen derivatives of fenretinide. A. Cell cycle profile determined by FACS analysis of MON cells treated with either 5 or 10 μM concentrations of fenretinide and its derivatives for 2 days. Percentage of cells at various stages of cell cycle (G1, S and G2) is indicated. B. Percentage of MON cells at sub-G1 when exposed for 2 days to fenretinide and its derivatives.
as §2, with “4A-4B.” for “3A-3B.”, “peptidomimetic” for “halogen”
(§3) The effects of fenretinide, halogen substitutes, and peptidomimetic derivatives on cell cycle regulation and apoptosis were tested by using: i) cell survival assay (MTS); ii) FACS analysis; and iii) immunoblot analysis to determine the effect on Cyclin D1.

[5] = system: tumor cell; details: in vitro, literature (ref 1); read-out: IC50s, suppression of tumor cell growth in vitro; cited from earlier work
[6] = 200 mg/day (MTD), breast cancer patients, literature (ref 3); cited from earlier work
[7] = system: Cyclin D1; experiment: Immunoblot analysis of Cyclin D1 expression; assay type: cell-based; details: biomarker expression, Table 3
Experimental: FIG. 5A-5B. Effect of fenretinide, its derivatives and peptidomimetic compounds on expression of Cyclin D1. Immunoblot analysis to determine the effect of fenretinide and its halogen substitutes (A) and peptidomimetic compounds (B). GAPDH is a loading control.
This assay was performed using a routine laboratory protocol as previously described using chemiluminescence detection method (30). The following antibodies were used: polyclonal α-cyclin D1 Ab-3 (NeoMarkers, Cat# RB-010-P0), monoclonal α-cyclin D1 DCS-6 (NeoMarkers, Cat# MS-210-P1), α-β-Actin (Sigma Cat# A5441) and α-Tubulin-α (Sigma, Cat # T5168).
as §3

[8] = regular FBS, read-out: IC50 (in regular FBS)
[9] = MON cells, nonlinear regression, sigmoidal dose response, read-out: Relative IC50
[10] = MON rhabdoid cells, survival assay, values in text, read-out: IC50

behaviour in cell culture medium (precipitation / insolubility) [3]: precipitated in cell culture medium
SMILES: CC1=C(/C=C/C(C)=C/C=C/C(C)=C/C(=O)Nc2ccc(I)cc2)C(C)(C)CCC1 [5(d), (2E,4E,6E,8E)-[3,7-Dimethyl-9-(2,6,6-trimethyl-1-cyclohexenyl)-nona-2,4,6,8-tetraenoylamino]-(4-iodo)phenylamide]
IC50 [1, 8]: > 50 µM
IC50 [2]: > 15 µM

SMILES: CC1=C(/C=C/C(C)=C/C=C/C(C)=C/C(=O)Nc2ccc(O)cc2)C(C)(C)CCC1 [Compound 4-HPR, N-(4-hydroxyphenyl)retinamide, reference compound]
% G1 ([4]; 5 μM, Table 5): 86.32%
% G2 ([4]; 5 μM, Table 5): 6.73%
% S ([4]; 5 μM, Table 5): 6.95%
SubG1 (percentage of MON cells at sub-G1) ([4]; 5 μM, Table 5): 37.12%
% G1 ([4]; 5 μM, Table 6): 86.32%
% G2 ([4]; 5 μM, Table 6): 6.49%
% S ([4]; 5 μM, Table 6): 6.95%
SubG1 (percentage of MON cells at sub-G1) ([4]; 5 μM, Table 6): 37.12%
% G1 ([4]; 10 μM, Table 5): 85.41%
% G2 ([4]; 10 μM, Table 5): 6.66%
% S ([4]; 10 μM, Table 5): 7.93%
SubG1 (percentage of MON cells at sub-G1) ([4]; 10 μM, Table 5): 73.98%
% G1 ([4]; 10 μM, Table 6): 85.41%
% G2 ([4]; 10 μM, Table 6): 7.60%
% S ([4]; 10 μM, Table 6): 8.02%
SubG1 (percentage of MON cells at sub-G1) ([4]; 10 μM, Table 6): 73.98%
IC50 [5]: 1 to 10 µM
IC50 [1, 9]: 14.7 µM
IC50 ([1]; MON cells, three days, compounds in FIG. 1A-1D, concentration of drug required to kill 50% of cells, read-out: IC50): 19 µM
IC50 [1, 10]: ~15 µM
IC50 [1, 8]: 12 to 19 µM
plasma concentration [6]: 1000 nM
IC50 [2]: 2 µM
Repression of Cyclin D1 [7]: Yes

behaviour in cell culture medium (precipitation / insolubility) [3]: did not show any precipitation
SMILES: CCC1=C(C)/C(=C/c2ccc(C(=O)Nc3ccc(O)c(I)c3)cc2)CCC1(C)C [Compound 11d, (E)-4-((3-ethyl-2,4,4-trimethylcyclohex-2-enylidene)methyl)-N-(4-hydroxy-3-iodophenyl)benzamide]
IC50 [1, 9]: 3.15 µM
IC50 [1, 10]: 3 µM
cytotoxic activity against rhabdoid tumor cells (in words) ([1]; compared with 4-HPR): more active when compared to parent Fenretinide
